These results are taken from patent US6761898B1, “Combination composition in the form of nutritional supplement or pharmaceutical composition for the prevention and therapeutical treatment of degenerative or inflammatory articular disorders” (Sigma-Tau Industrie Farmaceutiche Riunite S.p.A., priority 1998, dated 2004).

In assay [1] the test system is Type II collagen arthritis in mice. As to the kind of experiment: Type II collagen arthritis tests. It counts as in vivo. The conditions noted are these: injected from day one after collagen injection to end of sixth week, L-carnitine 50 and 100 mg/kg, glucosamine 100 and 200 mg/kg, chondroitin sulphate 50 and 100 mg/kg. The protocol:
Type II collagen arthritis was induced in mice according to the technique described by Trentham (Trentham D. R., Townes A. S., Kang A. H., J. Exp. Med., 146, 857, 1977). One group of mice was immunised by means of intradermal injections of natural collagen emulsified in complete Freund's adjuvant (Difco Labs., Detroit, U.S.A.) at the base of the tail. Three weeks later these animals were re-injected intraperitoneally with the same dose of emulsified collagen. L-carnitine (50 mg/kg and 100 mg/kg), glucosamine (100 mg/kg and 200 mg/kg) and chondroitin sulphate (50 mg/kg and 100 mg/kg) were injected alone or in combination from day one after the collagen injection up to the end of the sixth week. One group of animals (control) received no treatment. The assessment of the severity of the oedema was done according to its intensity with scores ranging from 1 to 4. […] When L-carnitine was combined with either glucosamine or with chondroitin sulphate an approximately 50% reduction of arthrosis was obtained.

Assay [2] concerns carragenin-induced oedema in the rat. Put plainly: Carragenin oedema tests. It counts as in vivo. The conditions noted are these: for effect on severity of the carragenin-induced oedema: substance alone, 50, 100 and 200 mg/kg one hour prior to carragenin. Here is the method: Carragenin oedema was induced in the rat by injection of 0.1 ml of a 1% carragenin solution (Sigma Chemical) in the subplantar region of the rat's right paw. The volume of the paw was measured by means of a mercury plethysmograph one hour later and over the 5-hour period following carragenin injection.
L-carnitine, glucosamine and chondroitin sulphate were administered one hour prior to carragenin injection, both alone and in combination at doses of 50, 100 and 200 mg/kg of these compounds.

[3] abbreviates: dose 100 mg/kg (each substance), 2 hours.
The mark [4] stands for this setting: dose 100 mg/kg (each substance), 3 hours.
The mark [5] stands for this setting: dose 100 mg/kg (each substance), 4 hours.
Setting [6] is: dose 200 mg/kg (each substance), 1 hour.
Where [7] appears, read: dose 200 mg/kg (each substance), 2 hours.
Setting [8] is: dose 200 mg/kg (each substance), 3 hours.
[9] abbreviates: dose 200 mg/kg (each substance), 4 hours.

For the compound chondroitin sulphate, the “inhibitory effect on the development of the typical signs of arthritis” value (shortened to “inhibitory effect on the development”) in assay [1] is on record as “neither L-carnitine, glucosamine nor chondroitin sulphate when administered alone had any inhibitory effect”. Further, the “% Reduction of oedema at various hours after carragenin injection” value (from here on “% Reduction of oedema at various hours”) in assay [2] (dose 100 mg/kg (each substance), 1 hour) is reported as 10 ± 0.3%; in assay [2] (setting [3]) it was 10 ± 0.8%; in assay [2] (setting [4]), 5 ± 0.4%; in assay [2] (setting [5]) it was 5 ± 0.1%; in assay [2] (setting [6]), 10 ± 1.9%; in assay [2] (setting [7]), 15 ± 1.1%. Also, the “% Reduction of oedema at various hours” value came out at 20 ± 1.8% in assay [2] (setting [8]) and 10 ± 1.2% in assay [2] (setting [9]). The “effect on severity of the carragenin-induced oedema” value (“effect on severity” for short) in assay [2] is “failed to modify the severity”.

`N[C@H]1C(O)O[C@H](CO)[C@@H](O)[C@@H]1O` (some centres unmarked) [Glucosamine, glucosamine]: the “inhibitory effect on the development” value in assay [1] was “neither L-carnitine, glucosamine nor chondroitin sulphate when administered alone had any inhibitory effect”. Also, the “% Reduction of oedema at various hours” value amounted to 5 ± 0.3% in assay [2] (setting [3]); 5 ± 0.5% in assay [2] (setting [4]); 5 ± 0.6% in assay [2] (setting [5]); 5 ± 0.2% in assay [2] (setting [6]); 10 ± 0.9% in assay [2] (setting [7]); 10 ± 1.1% in assay [2] (setting [8]). In addition, the “% Reduction of oedema at various hours” value in assay [2] (setting [9]) is listed as 5 ± 0.5%. Besides, in assay [2], the “effect on severity” value was “failed to modify the severity”.

As to `C[N+](C)(C)C[C@H](O)CC(=O)[O-]` [L-carnitine], in assay [1], the “inhibitory effect on the development” value is recorded as “neither L-carnitine, glucosamine nor chondroitin sulphate when administered alone had any inhibitory effect”. Also, the “% Reduction of oedema at various hours” value in assay [2] (setting [7]) was determined as 10 ± 0.2%; in assay [2] (setting [8]) it was 5 ± 0.3%. In addition, the “effect on severity” value in assay [2] is on record as “failed to modify the severity”.
